Assay results from PMC6032016, “Synthesis, biological evaluation, and molecular modelling studies of potent human neutrophil elastase (HNE) inhibitors” (Journal of Enzyme Inhibition and Medicinal Chemistry, 2018).
“And” between values parts separate entries of the source, which are not always exact repeats. Equal entries are not always repeated.

Experiments:
[1] = biological target: T1, HNE (human neutrophil elastase) (Homo sapiens, UniProt P08246); test: HNE inhibition assay (fluorogenic substrate cleavage); type: biochemical; conditions: for IC50: mean ± SD of three independent experiments, NA: no inhibitory activity at the highest concentration tested (50 µM)
T1 construct: purchased Calbiochem
T1 sequence (P08246 30-267): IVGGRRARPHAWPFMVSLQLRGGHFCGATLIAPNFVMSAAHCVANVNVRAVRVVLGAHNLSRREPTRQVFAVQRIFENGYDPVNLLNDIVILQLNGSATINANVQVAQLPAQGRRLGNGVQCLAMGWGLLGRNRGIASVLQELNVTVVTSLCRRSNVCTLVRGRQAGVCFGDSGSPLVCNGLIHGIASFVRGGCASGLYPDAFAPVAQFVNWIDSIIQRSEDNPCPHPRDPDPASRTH
Method: Compounds were dissolved in 100% DMSO at 5 mM stock concentrations. […] The HNE inhibition assay was performed in black flat-bottom 96-well microtiter plates. Briefly, a buffer solution containing 200 mM Tris–HCl, pH 7.5, 0.01% bovine serum albumin, and 0.05% Tween-20 and 20 mU/mL of HNE (Calbiochem) was added to wells containing different concentrations of each compound. The reaction was initiated by addition of 25 µM elastase substrate (N-methylsuccinyl-Ala-Ala-Pro-Val-7-amino-4-methylcoumarin, Calbiochem) in a final reaction volume of 100 µl/well. Kinetic measurements were obtained every 30 s for 10 min at 25 °C using a Fluoroskan Ascent FL fluorescence microplate reader (Thermo Electron, MA) with excitation and emission wavelengths set at 355 and 460 nm, respectively. For all compounds tested, the concentration of inhibitor that caused 50% inhibition of the enzymatic reaction (IC50) was calculated by plotting % inhibition versus logarithm of inhibitor concentration (at least six points). The data are presented as the mean values of at least three independent experiments with relative standard deviations of <15%.

[2] = Analysis of compound stability: spontaneous hydrolysis in aqueous buffer; type: physicochemical; conditions: 25 °C, 0.05 M phosphate buffer, pH 7.3; read-out: t1/2 for spontaneous hydrolysis (converted)
Method: Spontaneous hydrolysis of selected derivatives was evaluated at 25 °C in 0.05 M phosphate buffer, pH 7.3. Kinetics of hydrolysis were monitored by measuring changes in the absorbance spectra over time using a SpectraMax Plus microplate spectrophotometer (Molecular Devices, Sunnyvale, CA). Absorbance (At) at the characteristic absorption maxima of each compound was measured at the indicated times until no further absorbance decreases occurred (A∞)[52]. Using these measurements, we created semilogarithmic plots of log(At–A∞) versus time, and k′ values were determined from the slopes of these plots. Half-conversion times were calculated using t1/2 = 0.693/k′, as described previously[36]^,[37].

HNE [3] = biological target: T2, HNE (Homo sapiens, UniProt P08246); test: Reversibility of HNE inhibition over extended periods of time; type: biochemical; conditions: 8 µM compound
T2 construct: purchased Calbiochem
T2 sequence (P08246 30-267): T1 sequence (P08246 30-267)
Method: The inhibition was maximal for up to 60 min with compound 7e and >120 min for the other tested compounds (4a, 4b, and 7a). However, inhibition by the compounds was eventually reversed, and full recovery of HNE activity was observed by 4 h after treatment with 8 µM of the compound (e.g. see Figure 6).
Figure 6. […] HNE was incubated with the indicated compounds (8 µM), and kinetic curves monitoring substrate cleavage catalysed by HNE over time are shown. Representative curves are from two independent experiments.

HNE [4] = biological target: T2, HNE; test: Kinetics of HNE inhibition (double-reciprocal Lineweaver–Burk plots); type: biochemical; conditions: Lineweaver–Burk plot of fluorogenic substrate hydrolysis
Text: To better understand the mechanism of action of these isoxazolone HNE inhibitors, we performed kinetic experiments.
Figure 7. Kinetics of HNE inhibition by compounds 7d and 8d. Representative double reciprocal Lineweaver–Burk plots are shown from three independent experiments.

| melting point | IC50 [1] | half-life [2] [h] | time for which HNE inhibition was maximal (HNE [3]) | HNE inhibitory activity, result in words ([1]; highest concentration tested 50 µM) | time after which HNE inhibition was reversed (HNE [3]) [min] | mechanism of HNE inhibition (HNE [4]) | SMILES |
| --- | --- | --- | --- | --- | --- | --- | --- |
| 85 to 88 °C | 77 ± 27 nM | 4.1 | > 120 min |  |  |  | Cc1cccc(C(=O)n2oc(=O)c(-c3ccccc3)c2C)c1 [Compound 4a, 3-Methyl-2-(3-methylbenzoyl)-4-phenylisoxazol-5(2H)-one] |
| 83 to 86 °C | 59 ± 18 nM | 8.3 | > 120 min |  |  |  | Cc1c(-c2ccccc2)c(=O)on1C(=O)C1CC1 [Compound 4b, 2-(Cyclopropanecarbonyl)-3-methyl-4-phenylisoxazol-5(2H)-one] |
| 132 to 134 °C | 8500 ± 2100 nM |  |  |  |  |  | Cc1c(-c2ccccc2)c(=O)on1C(=O)c1ccc(NC(=O)C(C)(C)C)cc1 [Compound 4i, N-(4-(3-methyl-5-oxo-4-phenyl-2,5-dihydroisoxazole-2-carbonyl)phenyl)pivalamide] |
| 130 to 132 °C | 480 ± 130 nM |  |  |  |  |  | Cc1c(-c2ccccc2)c(=O)on1C(=O)c1ccc(OC(=O)C(C)(C)C)cc1 [Compound 4l, 4-(3-Methyl-5-oxo-4-phenyl-2,5-dihydroisoxazole-2-carbonyl)phenyl pivalate] |
| 160 to 163 °C | 10100 ± 1300 nM |  |  |  |  |  | Cc1cccc(C(=O)n2oc(=O)c(-c3ccccc3)c2-c2ccccc2)c1 [Compound 4m, 2-(3-Methylbenzoyl)-3,4-diphenylisoxazol-5(2H)-one] |
| 100 to 103 °C | 17200 ± 2300 nM |  |  |  |  |  | O=C(C1CC1)n1oc(=O)c(-c2ccccc2)c1-c1ccccc1 [Compound 4n, 2-(Cyclopropanecarbonyl)-3,4-diphenylisoxazol-5(2H)-one] |
| 177 to 180 °C (dec.) |  |  |  | completely inactive |  |  | Cc1cccc(C(=O)n2oc(=O)cc2-c2ccc([N+](=O)[O-])cc2)c1 [Compound 4s, 2-(3-Methylbenzoyl)-3-(4-nitrophenyl)isoxazol-5(2H)-one] |
|  | 20 ± 9 nM | 7.7 | > 120 min |  |  |  | Cc1ccc(-c2c(C)n(C(=O)c3cccc(C)c3)oc2=O)cc1 [Compound 7a, 3-Methyl-2-(3-methylbenzoyl)-4-(p-tolyl)isoxazol-5(2H)-one] |
| 108 to 110 °C | 70 ± 20 nM |  |  |  | ~30 |  | Cc1cccc(C(=O)n2oc(=O)c(-c3ccc(C#N)cc3)c2C)c1 [Compound 7b, 4-(3-Methyl-2-(3-methylbenzoyl)-5-oxo-2,5-dihydroisoxazol-4-yl)benzonitrile] |
| 152 to 154 °C | 210 ± 40 nM |  |  |  |  |  | Cc1cccc(C(=O)n2oc(=O)c(-c3ccc([N+](=O)[O-])cc3)c2C)c1 [Compound 7c, 3-Methyl-2-(3-methylbenzoyl)-4-(4-nitrophenyl)isoxazol-5(2H)-one] |
| 159 to 160 °C | 50 ± 20 nM | 3.9 |  |  | ~30 | competitive | CC(=O)Nc1ccc(-c2c(C)n(C(=O)c3cccc(C)c3)oc2=O)cc1 [Compound 7d, N-(4-(3-methyl-2-(3-methylbenzoyl)-5-oxo-2,5-dihydroisoxazol-4-yl)phenyl)acetamide] |
| 120 to 123 °C | 50 ± 20 nM | 9.6 | up to 60 min |  |  |  | Cc1cccc(C(=O)n2oc(=O)c(-c3ccc(NC(=O)C4CC4)cc3)c2C)c1 [Compound 7e, N-(4-(3-methyl-2-(3-methylbenzoyl)-5-oxo-2,5-dihydroisoxazol-4-yl)phenyl)ciclopropanecarboxamide] |
|  | 10000 nM and 10200 nM | 5.3 |  |  |  |  | Cc1ccc(-c2c(C)noc2OC(=O)c2cccc(C)c2)cc1 [Compound 8a, 3-Methyl-4-(p-tolyl)isoxazol-5-yl 3-methylbenzoate] |
| 98 to 100 °C | 420 ± 130 nM |  |  |  |  |  | Cc1cccc(C(=O)Oc2onc(C)c2-c2ccc(C#N)cc2)c1 [Compound 8b, 4-(4-Cyanophenyl)-3-methylisoxazol-5-yl 3-methylbenzoate] |
| 57 to 60 °C | 540 ± 110 nM | 2.9 |  |  |  | competitive | CC(=O)Nc1ccc(-c2c(C)noc2OC(=O)c2cccc(C)c2)cc1 [Compound 8d, 4-(4-Acetamidophenyl)-3-methylisoxazol-5-yl3-methylbenzoate] |
| 80 to 82 °C | 620 ± 210 nM | 5.6 |  |  |  |  | Cc1cccc(C(=O)Oc2onc(C)c2-c2ccc(NC(=O)C3CC3)cc2)c1 [Compound 8e, 4-(4-(Ciclopropanecarboxamido)phenyl)-3-methylisoxazol-5-yl3-me-thylbenzoate] |
| 116 to 119 °C | 638 ± 121 nM |  |  |  |  |  | Cc1cccc(C(=O)n2oc(=O)c3ccccc32)c1 [Compound 10c, 1-(3-Methylbenzoyl)benzo[c]isoxazol-3(1H)-one] |
